We go through two compounds from US20260028334A1, “N-(3-(BENZO[B]THIOPHENE-2-CARBOXAMIDO)-PHENYL)-2,3-DIHYDROBENZO[B][1,4]DIOXINE-6-CARBOXAMIDE DERIVATIVES AND RELATED COMPOUNDS AS LACTATE/ATP PRODUCTION INHIBITORS FOR THE TREATMENT OF CANCER” (WMT Aktiengesellschaft, priority 2022, published 2026).

Assay [1] concerns HeLa, 4T1, LLC1, A549, MDA-MB-231 and MiaPaCa2 cells. Nature of the assay: Assay for inhibition of ATP production (FIG. 1). The assay is classed as cell-based. The conditions noted are these: 48 hours treatment, 1.5 to 10000 nM. The procedure: The assay determines the amount of ATP in cells in culture.
Cells were plated at 4,000 per well in 96-well plate in a medium of high glucose DMEM (PAN) supplemented with 10% FBS (PAN), 2 mM glutamine-alanine (PAN), 2 mM pyruvate (Sigma) and 10 mL/L penicillin-streptomycin and grown at 37° C. in 0.5% O2, 5% CO2 and 75% humidity. For hypoxia, cells were grown and treated in the Whitley H35 Hypoxystation (Don Whitley Scientific) at 37° C. in 0.5% O2, 5% CO2 and 75% humidity. The next day, cells were induced with test compounds (FIG. 1: compounds of examples 3/16, 3/8, 10 at 10000, 3333, 1111, 370, 123, 41, 14, 5 and 1.5 nM; FIGS. 8A and 8B: compounds of example 3/19, 30 and 30/2 at 10000, 3333, 1111, 370, 123, 41, 14, 5 and 1.5 nM), as well as with vehicle (DMSO) only, for 48 hours. After this time, the medium was removed from the cells and intracellular ATP levels were determined using the Promega CellTiter-Glo 2.0 assay protocol (Promega, G9241). To estimate the effect of compounds on the ATP production, sample values were compared to the values of DMSO only. IC50 values were generated by plotting the luciferase counts against compound concentration.

For another assay, the target named is p62 (Homo sapiens (Human), UniProt Q13501). Nature of the assay: Western Blot analysis of p62. The format is cell-based. The conditions noted are these: HeLa cells, normoxic and hypoxic conditions; for p62: 24 hours, 10, 30 and 100 nM, also with Bafilomycin A, FIG. 5. The procedure:
Western Blot analysis was used to detect amounts of specific protein in differently treated cells. Proteins are separated by size, transferred onto a nitrocellulose membrane and incubated with protein specific antibodies. The density of the observed band is proportional to the amount of the specific protein inside the cell.
Cells were plated at 4×10^6 (for hypoxia) or 3×10^6 (for normoxia) cells per […] plate in medium of high glucose DMEM (PAN) supplemented with 10% FBS (PAN), 2 mM glutamine-alanine (PAN), 2 mM pyruvate (Sigma) and 10 ml/L penicillin-streptomycin (PAN), and grown at 37° C. in […], 5% CO2 and 75% humidity. For hypoxia, cells were grown and treated in the Whitley H35 Hypoxystation (Don Whitley Scientific) at 37° C. in 0.5% O2, 5% CO2 and 75% humidity. Next day, the cells were treated with test compounds (FIG. 4: compounds of example 3/8 and 10 at concentrations 0.1, 0.3 and 1 μM, Bafilomycin A at 20 nM; FIG. 5: compounds of example 3/16, 3/8 and 10 at concentrations 10, 30 and 100 nM, Bafilomycin A at 20 nM), as well as with vehicle (DMSO) only, for 24 h. After 24 hours, the cells were washed with PBS and scraped to collect. The lysate was centrifuged at 2,000 rpm for 3 min at 4° C. The cell pellet was resuspended in 250 μl Lysis Buffer (20 mM Tris pH 7.8, 150 mM NaCl, 0.05% Tween20, 2 mM MgCl2, protease inhibitors (Roche), 1 mM NaF, 1 mM Na3VO4) and sonicated at 50% for 20 sec. The sample was centrifuged at 14,000 rpm for 4 min at 4° C. Protein concentration of the sample was measured using the DC Protein Assay Kit (Biorad, 5000112), 22 μg of protein extract per well was loaded onto a precast SDS page gel (Biorad, 1704273). Proteins were then transferred onto a PVDF-membrane (Biorad, 10026933) using Biorad Trans-Blot Turbo Transfer System. […] The chemiluminescence was measured using chemiluminescent substrate (#34580, Thermo Scientific).
On the technique in general: A western blot detects proteins with antibodies after separation by electrophoresis.

For the compound `Cc1ccc(NC(=O)c2ccc3c(c2)OCCO3)cc1NC(=O)c1cc2cccnc2s1` [3/16], the ATP production level entry in assay [1] is “dose-dependent reduction”. For the same compound, at p62, the p62 entry is reported as “dose-dependent reduction”.
Take `O=C(Nc1ccc(F)c(NC(=O)c2cc3ccc(OCCCN4CCCC4)cc3s2)c1)c1ccc2c(c1)OCCO2` [3/8]: the ATP production level entry in assay [1] is given as “dose-dependent reduction”. Besides, the p62 protein levels result on p62 (24 hours, 0.1, 0.3 and 1 μM, FIG. 4) is given as “dose-dependent reduction”. Also, the p62 result on p62 is on record as “dose-dependent reduction”.
